# From ChEMBL document CHEMBL5543140 (J Med Chem, 2024)
# Active and inactive are the calls of the source. The calls are words filed in the database; no cut-off is given here.
# Experiments:
# [1] = Ex vivo binding in C57BL/6J mouse brain frontal cortex assessed as specific binding [3H]Cimbi-36 at 1 mg/kg, sc measured after 40 mins by liquid scintillation counting analysis (reference value: 1092 +/- 53); assay type: functional
# [2] = tested on: Mus musculus; assay: Locomotor activity in C57BL/6J mouse assessed as distance traveled at 1 mg/kg, po measured for 15 to 25 mins (reference value: 1710 +/- 120 cm) by Ethovision tracking system; assay type: functional; settings: time 15-25 min
# [3] = tested on: Hippocampus; assay: Induction of neuroplasticity in C57BL/6J mouse assessed as increase in mTOR mRNA expression in brain hippocampus at 0.3 mg/kg, sc single dose by RT-PCR analysis; assay type: functional, organism-based
# [4] = Initial plasma concentration in male Sprague-Dawley rat at 1 mg/kg, iv measured upto 8 hrs by LC-MS/MS analysis; assay type: ADME, organism-based
# [5] = Tmax in Wistar rat plasma at 5 mg/kg, po measured upto 48 hrs; assay type: ADME, organism-based
# [6] = Half life in male Sprague-Dawley rat plasma at 1 mg/kg, iv measured upto 8 hrs by LC-MS/MS analysis; assay type: ADME, organism-based
# [7] = tested on: Brain; assay: Drug binding in male Sprague-Dawley rat brain homogenate at 1 mg/kg, iv measured upto 8 hrs by LC-MS/MS analysis; assay type: ADME, organism-based; settings: in vivo
# [8] = tested on: Mus musculus; assay: Psychedelic effect in C57BL/6J mouse assessed as number of 5-HT2A receptor dependent head-twitch responses by visual observation at 3 mg/kg, sc in presence of ketanserin 1 mg/kg, sc measured after 24 hrs; assay type: functional
# [9] = target: T1, 5-hydroxytryptamine receptor 2A (Homo sapiens, UniProt P28223); assay: Displacement of [3H]LSD from human 5-HT2A receptor expressed in HEK293 cell membrane incubated for 90 mins by microbeta liquid scintillation counting method; assay type: cell membranes
# T1 sequence (P28223 whole entry): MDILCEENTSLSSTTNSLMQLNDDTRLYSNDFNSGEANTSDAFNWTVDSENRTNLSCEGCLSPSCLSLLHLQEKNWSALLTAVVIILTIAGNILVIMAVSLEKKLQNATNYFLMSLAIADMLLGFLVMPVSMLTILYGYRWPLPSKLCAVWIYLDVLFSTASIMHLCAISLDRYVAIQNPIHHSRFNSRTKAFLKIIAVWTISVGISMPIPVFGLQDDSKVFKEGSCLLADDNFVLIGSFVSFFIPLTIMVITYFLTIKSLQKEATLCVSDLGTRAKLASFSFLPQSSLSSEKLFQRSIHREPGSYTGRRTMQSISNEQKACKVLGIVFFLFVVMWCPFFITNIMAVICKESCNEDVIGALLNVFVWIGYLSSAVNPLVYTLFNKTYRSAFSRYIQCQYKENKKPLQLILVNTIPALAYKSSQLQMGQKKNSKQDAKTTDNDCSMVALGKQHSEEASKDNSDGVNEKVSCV
# [10] = AUCinf in Wistar rat plasma at 1 mg/kg, iv measured upto 48 hrs; assay type: ADME, organism-based
# [11] = Cmax in Wistar rat plasma at 1 mg/kg, iv measured upto 48 hrs; assay type: ADME, organism-based
# [12] = species on record: Homo sapiens; assay: Selectivity ratio, ratio of Ki for human 5-HT2B receptor to human 5-HT2A receptor
# [13] = Ex vivo binding in C57BL/6J mouse brain frontal cortex assessed as inhibition of [3H]Cimbi-36 binding at 1 mg/kg, sc measured after 160 mins by liquid scintillation counting analysis (reference value: 0%); assay type: functional; settings: 2.667 h
# [14] = target: Alpha-2A adrenergic receptor (Homo sapiens) (UniProt P08913); assay: Agonist activity at human recombinant adrenergic alpha-2A receptor expressed in CHO-K1 cells co-transfected with 22F-Glosensor assessed as maximal inhibition of cAMP production measured after 30 mins incubation by Microbeta2Micro-plate counter analysis relative to clonidine; assay type: functional, cell-based; settings: filed as agonist
# Chain of Alpha-2A adrenergic receptor (Homo sapiens) (P08913 whole entry): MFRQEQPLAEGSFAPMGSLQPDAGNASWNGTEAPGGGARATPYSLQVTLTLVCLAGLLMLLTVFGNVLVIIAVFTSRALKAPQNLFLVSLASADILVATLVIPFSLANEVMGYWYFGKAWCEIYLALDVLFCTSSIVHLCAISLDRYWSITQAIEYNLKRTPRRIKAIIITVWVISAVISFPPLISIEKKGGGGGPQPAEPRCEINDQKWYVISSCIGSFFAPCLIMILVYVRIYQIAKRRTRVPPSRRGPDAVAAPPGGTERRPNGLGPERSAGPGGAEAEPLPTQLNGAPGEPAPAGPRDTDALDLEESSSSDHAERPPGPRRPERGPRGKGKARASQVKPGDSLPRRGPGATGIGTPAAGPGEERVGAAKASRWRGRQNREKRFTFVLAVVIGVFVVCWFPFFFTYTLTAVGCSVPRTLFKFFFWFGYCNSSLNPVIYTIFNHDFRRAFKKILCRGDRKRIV
# [15] = Absolute oral bioavailability in Wistar rat plasma at 5 mg/kg, […] measured upto 48 hrs; assay type: ADME, organism-based
# [16] = tested on: Hippocampus; assay: Induction of neuroplasticity in C57BL/6J mouse assessed as increase in IGF1 mRNA expression in brain hippocampus at 3 mg/kg, sc single dose by RT-PCR analysis; assay type: functional, organism-based
# [17] = tested on: Brain; assay: Drug binding in male C57BL/6J mouse brain homogenate at 1 mg/kg, iv measured upto 8 hrs by LC-MS/MS analysis; assay type: ADME, organism-based; settings: in vivo
# [18] = Cmax in beagle dog at 2 mg/kg, po measured upto 24 hrs; assay type: ADME, organism-based, Canis lupus familiaris; settings: in vivo
# [19] = Cmax in Wistar rat plasma at 5 mg/kg, po measured upto 48 hrs; assay type: ADME, organism-based
# [20] = tested on: Hippocampus; assay: Induction of neuroplasticity in C57BL/6J mouse assessed as increase in IGF1 mRNA expression in brain hippocampus at 0.3 mg/kg, sc single dose by RT-PCR analysis; assay type: functional, organism-based
# [21] = Unbound concentration in male Sprague-Dawley rat brain homogenate at 1 mg/kg, iv measured upto 8 hrs by LC-MS/MS analysis; assay type: ADME, organism-based
# [22] = Clearance in male Sprague-Dawley rat plasma at 1 mg/kg, iv measured upto 8 hrs by LC-MS/MS analysis; assay type: ADME, organism-based
# [23] = target: T2, 5-hydroxytryptamine receptor 2C (Homo sapiens, UniProt P28335); assay: Displacement of [3H]LSD from human 5-HT2C receptor expressed in HEK293 cell membrane incubated for 90 mins by microbeta liquid scintillation counting method; assay type: cell membranes
# T2 sequence (P28335 whole entry): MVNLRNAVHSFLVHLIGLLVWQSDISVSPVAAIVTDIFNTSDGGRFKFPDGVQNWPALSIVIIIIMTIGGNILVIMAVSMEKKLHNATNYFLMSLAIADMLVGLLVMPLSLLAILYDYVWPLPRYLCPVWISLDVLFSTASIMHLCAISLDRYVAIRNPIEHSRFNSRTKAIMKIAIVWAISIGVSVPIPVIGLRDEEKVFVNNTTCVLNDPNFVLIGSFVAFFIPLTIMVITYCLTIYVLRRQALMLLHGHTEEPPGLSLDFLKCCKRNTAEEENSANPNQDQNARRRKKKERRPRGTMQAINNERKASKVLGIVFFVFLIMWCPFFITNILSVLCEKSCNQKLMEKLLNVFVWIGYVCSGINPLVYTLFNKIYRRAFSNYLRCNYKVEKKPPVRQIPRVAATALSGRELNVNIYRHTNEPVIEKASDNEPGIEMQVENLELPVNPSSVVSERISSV
# [24] = tested on: Hippocampus; assay: Induction of neuroplasticity in C57BL/6J mouse assessed as increase in PSD-95 mRNA expression in brain hippocampus at 0.3 mg/kg, sc single dose by RT-PCR analysis; assay type: functional, organism-based
# [25] = Cmax in Wistar rat brain at 5 mg/kg, po measured upto 48 hrs; assay type: ADME, organism-based
# [26] = tested on: Hippocampus; assay: Induction of neuroplasticity in C57BL/6J mouse assessed as increase in NPTN mRNA expression in brain hippocampus at 3 mg/kg, sc single dose by RT-PCR analysis; assay type: functional, organism-based
# [27] = target: T1, 5-hydroxytryptamine receptor 2A; assay: Binding affinity to human [125I]LSD-labeled 5-HT2A receptor expressed in HEK293 cell membrane incubated for 60 mins; assay type: cell membranes
# [28] = Ex vivo binding in C57BL/6J mouse brain frontal cortex assessed as specific binding [3H]Cimbi-36 at 1 mg/kg, sc measured after 300 mins by liquid scintillation counting analysis (reference value: 1092 +/- 53); assay type: functional; settings: 5 h
# [29] = Ex vivo binding in C57BL/6J mouse brain frontal cortex assessed as specific binding [3H]Cimbi-36 at 1 mg/kg, sc measured after 100 mins by liquid scintillation counting analysis (reference value: 1092 +/- 53); assay type: functional; settings: 1.667 h
# [30] = MRTinf in male Sprague-Dawley rat CSF at 1 mg/kg, iv measured upto 8 hrs by LC-MS/MS analysis; assay type: ADME, organism-based, Cerebrospinal fluid
# [31] = tested on: Mus musculus; assay: Psychedelic effect in C57BL/6J mouse assessed as development of tolerance/ tachyphylaxis at 0.3 mg/kg, sc measured on day 4 by head-twitch responses test; assay type: functional, organism-based; settings: time 4.0 day
# [32] = Brain to plasma ratio in Wistar rat at 1 mg/kg, iv measured upto 48 hrs; assay type: ADME, organism-based; settings: read-out: BPR
# [33] = Cmax in mouse C57BL/6J brain at 3 mg/kg, sc measured after 2 hrs; assay type: ADME, organism-based
# [34] = Clearance in Wistar rat plasma at 1 mg/kg, iv measured upto 48 hrs; assay type: ADME, organism-based
smiles,measurement,setting,value
COc1cc([Se]C(F)(F)F)c(OC)cc1CCN.Cl,Activity,[1],732
same,Activity,[2],2602 cm
same,Activity,[3],inactive
same,C0 at 8 h,[4],330 ng/mL
same,Tmax,[5],0.5 h
same,half-life,[6],1.53 h
same,Activity,[7],> 98%
same,Activity,[8],0.17
same,Ki,[9]; read-out: Ki,3.2 nM
same,Ki,[9]; read-out: pKi (converted),3.02 nM
same,AUC(0-inf),[10],50.7 ng·h/mL
same,Cmax,[11],54.1 ng/mL
same,Ratio Ki,[12],19
same,inhibition in vivo at 1 mg/kg,[13],33%
same,Emax,[14],56%
same,bioavailability,[15],19.1%
same,Activity,[16],inactive
same,Activity,[17],> 98%
same,Cmax,[18],263 ng/mL
same,Cmax,[19],18.6 ng/mL
same,Activity,[20],inactive
same,fraction unbound at 8 h,[21],0.014
same,clearance,[22],79.5 mL/min/kg
same,Ki,[23],95 nM
same,Activity,[24],inactive
same,Cmax,[25],402 ng/mL
same,Activity,[26],inactive
same,Ki,[27],4.1 nM
same,Activity,[28],857
same,Activity,[29],820
same,MRT inf,[30],1.51 h
same,Activity,[31],Active
same,Kp at 48 h,[32],64.3
same,Cmax,[33],3160 ng/g
same,clearance,[34],328 mL/min/kg
